# Measurements as given in article PMC11414412, “Design and synthesis new indole-based aromatase/iNOS inhibitors with apoptotic antiproliferative activity” (Frontiers in Chemistry, 2024).
# Tests used:
# [1] = Cell viability assay (MTT) on normal mammary epithelial cells; format: cell-based, human; settings: human, MCF-10A normal mammary gland epithelial cells, MCF-10A normal cells, 4 days incubation
# Description: This test investigates the effects of the new compounds 3–16 on normal cell lines to determine their safety. The normal human mammary gland epithelial (MCF-10 A) cell line was used to test the viability of the tested compounds. After 4 days of incubation on MCF-10 A cells within 50 µM of each investigated compound, cell viability was determined using the MTT assay ([Gomaa et al., 2020]; [Marzouk et al., 2020]).
# The normal human mammary gland epithelial (MCF-10A) cell line was used to test the viability of the tested compounds. After 4 days of incubation on MCF-10A cells within 50 µM of each investigated compound, cell viability was determined using the MTT assay ([Gomaa et al., 2020]; [Marzouk et al., 2020]). Refer to Supplementary Appendix SA1 (supp. File) for more details.
# 4.2. Biological evaluation
# 4.2.1 Cell Viability assay (MTT assay)
# MTT assay was performed to investigate the effect of the synthesized compounds on mammary epithelial cells (MCF-10A). The cells were propagated in medium consisting of Ham's F-12 medium/ Dulbecco's modified Eagle's medium (DMEM) (1:1) supplemented with 10% foetal calf serum, 2 mM glutamine, insulin (10 μg/mL), hydrocortisone (500 ng/mL) and epidermal growth factor (20 ng/mL). Trypsin ethylenediamine tetra acetic acid (EDTA) was used to passage the cells after every 2-3 days. 96-well flat-bottomed cell culture plates were used to seed the cells at a density of 10^4 cells mL-1. The medium was aspirated from all the wells of culture plates after 24 h followed by the addition of synthesized compounds (in 200 μL medium to yield a final concentration of 0.1% (v/v) dimethyl sulfoxide) into individual wells of the plates. Four wells were designated to a single compound. The plates were allowed to incubate at 37°C for 96 h. Afterwards, the medium was aspirated and 3-[4,5-dimethylthiazol-2-yl]-2,5-diphenyltetrazolium bromide (MTT) (0.4 mg/mL) in medium was added to each well and subsequently incubated for 3 h. The medium was aspirated and 150 μL dimethyl sulfoxide (DMSO) was added to each well. The plates were vortexed followed by the measurement of absorbance at 540 nm on a microplate reader. The results were presented as inhibition (%) of proliferation in contrast to controls comprising 0.1%
# Panc-1 cells = experiment: Antiproliferative assay, Panc-1; format: cell-based; settings: Homo sapiens; Panc-1 pancreatic cancer cell line; read-out: Antiproliferative activity IC50 ± SEM, Panc-1
# Description: 4.2.2. Assay for antiproliferative effect
# To explore the antiproliferative potential of compounds propidium iodide fluorescence assay was performed using different cell lines such as Panc-1 (pancreas cancer cell line), MCF-7 (breast cancer cell line), HT-29 (colon cancer cell line) and A-549 (epithelial cancer cell line), respectively. To calculate the total nuclear DNA, a fluorescent dye (propidium iodide, PI) is used which can attach to the DNA, thus offering a quick and precise technique. PI cannot pass through the cell membrane and its signal intensity can be considered as directly proportional to quantity of cellular DNA. Cells whose cell membranes are damaged or have changed permeability are counted as dead ones. The assay was performed by seeding the cells of different cell lines at a density of 3000-7500 cells/well (in200μl medium) in culture plates followed by incubation for 24h at 37 °C in humidified 5%CO2/95% air atmospheric conditions. The medium was removed; the compounds were added to the plates at 10 μM concentrations (in 0.1% DMSO) in triplicates, followed by incubation for 48h. DMSO (0.1%) was used as control. After incubation, medium was removed followed by the addition of PI (25 μl, 50μg/mL in water/medium) to each well of the plates. At - 80 °C, the plates were allowed to freeze for 24 h, followed by thawing at 25 °C. A fluorometer (Polar-Star BMG Tech) was used to record the readings at excitation and emission wavelengths of 530 and 620 nm for each well. The percentage cytotoxicity of compounds was calculated using […]
# Where ATC= Absorbance of treated cells and AC= Absorbance of control. Erlotinib was used as positive control in the assay.
# eNOS = target: T1, eNOS (Bos taurus, UniProt P29473); experiment: NOS inhibition assay (L-citrulline, fluorometric detection), eNOS; format: biochemical, bovine; settings: for inhibition at 10 µM / Inhibition (%) eNOS: compound at 10 µM
# T1 construct: purchased Cayman Chemical (Ann Arbor, USA)
# Description: The investigated compounds were tested at 1 µM against the iNOS and 10 µM against the eNOS to determine their isoform selectivity. Because of its critical role in cardiovasculature, inhibiting the constitutive enzyme eNOS should be avoided.
# Refer to Supplementary Appendix SA1 for more details.
# 4.2.4. NOS inhibition assay
# Recombinant human iNOS was purchased from Enzo Life Sciences, Inc. (New York, USA).
# Recombinant bovine eNOS was purchased from Cayman Chemical (Ann Arbor, USA). To measure iNOS activity, 10 μL of enzyme stock solution were added to 80 μL of 2-[4-(2-hydroxyethyl) piperazin-1-yl]ethanesulfonic acid (HEPES) buffer pH = 7.4, 100 mM, containing 0.1 mM CaCl2, 1 mM D,L-dithiothreitol (DTT), 0.5 mg/mL BSA, 10 μM flavin mononucleotide (FMN), 10 μM flavin adenine dinucleotide (FAD), 30 μM tetrahydrobiopterin (BH4), 10 μg/mL calmodulin (CaM), 10 μM L-Arg. For the eNOS activity evaluation, 25 μL of the enzyme stock solution were added to 65 μL of HEPES buffer containing 2 mM CaCl2 and the same cofactors […]
# μM) were added to the enzyme assay solution, followed by pre -incubation of 15 min at 37 ◦C.
# Each reaction was initiated by the addition of 10 μL of NADPH 7.5 mM, carried out at 37 ◦C for 30 min, and stopped by adding 500 μL of ice -cold CH3CN. The mixture was brought to dryness under vacuum and eventually stored at – 20 ◦C, before the HPLC analysis. […]
# aromatase (CYP19) = target: T2, aromatase (CYP19) (Homo sapiens, UniProt P11511); experiment: Aromatase inhibitory assay (Gentest kit, DBF fluorometric substrate)
# T2 sequence (P11511 1-503): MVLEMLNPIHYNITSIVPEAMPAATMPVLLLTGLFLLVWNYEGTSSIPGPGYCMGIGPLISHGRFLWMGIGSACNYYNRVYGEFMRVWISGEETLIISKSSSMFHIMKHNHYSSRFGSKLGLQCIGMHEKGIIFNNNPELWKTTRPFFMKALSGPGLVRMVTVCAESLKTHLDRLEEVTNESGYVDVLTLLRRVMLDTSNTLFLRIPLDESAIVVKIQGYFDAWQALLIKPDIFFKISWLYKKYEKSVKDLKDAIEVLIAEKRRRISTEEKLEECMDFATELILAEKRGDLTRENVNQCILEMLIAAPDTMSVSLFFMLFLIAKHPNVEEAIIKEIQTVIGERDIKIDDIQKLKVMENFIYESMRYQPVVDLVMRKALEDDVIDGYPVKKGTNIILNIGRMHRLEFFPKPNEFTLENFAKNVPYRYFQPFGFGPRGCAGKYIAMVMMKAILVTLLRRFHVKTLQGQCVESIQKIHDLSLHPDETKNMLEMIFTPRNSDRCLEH
# Description: The aromatase inhibitory effect was performed using the method reported by Stressor et al.[35].
# This method was carried out according to the Gentest kit using CYP19 enzyme and DBF as a
# fluorometric substrate. DBF was dealkylated by aromatase and then hydrolyzed to give the
# fluorescein product. Briefly, 100 μL of cofactor, containing 78.4 μL of 50 mM phosphate buffer
# (pH 7.4); 20 μL of 20x NADPH-generating system (26 mM NADP+, 66 mM glucose-6-phosphate,
# and 66 mM MgCl2); and 1.6 μL of 100 U/mL glucose-6-phosphate dehydrogenase, was pipetted
# into a 96-well plate and preincubated in 37 °C (water bath) for 10 min. The reaction was initiated
# by addition of 100 μL of enzyme/substrate mixture containing 77.3 μL of 50 mM
# phosphate buffer (pH 7.4); 12.5 μL of 16 pmol/mL CYP19; 0.2 μL of 0.2 mM DBF, and 10 μL of
# 0.25 mM diluted tested sample or 10% DMSO as a negative control or letrozole as a positive
# control. Fluorescence signal was recorded using an excitation wavelength of 490 nm and emission
# Percentage of inhibition (%inhibition) was calculated
# as shown in Equation (1).
# assayed in triplicate. Finally, IC50 values were determined by plot of concentrations versus %
IC50 (Panc-1 cells),inhibition at 10 µM (eNOS),IC50 (aromatase (CYP19)),Inhibition (%) eNOS (eNOS),IC50 (eNOS),Fold less potent than Letrozole (aromatase IC50) (aromatase (CYP19)),Fold more potent than Ketoconazole (aromatase IC50) (aromatase (CYP19)),IC50 eNOS (eNOS),SMILES,"viability at 4 days, 50 µM [1]"
32 ± 3 nM,49 ± 2%,20 ± 2 nM,–,–,–,–,–,"CCc1c2cc(Cl)ccc2n2c(C)c(C(=O)OCc3ccccc3)[nH]c(=O)c12 [Compound 5, benzyl 8-chloro-10-ethyl-4-methyl-1-oxo-1,2-dihydropyrazino [1,2-a]indole-3-carboxylate]",90%
28 ± 2 nM,32 ± 2%,15 ± 1 nM,moderate inhibitory action,–,–,–,–,"CCc1c2cc(Cl)ccc2n2c(C)c(C(=O)NCc3ccccc3)[nH]c(=O)c12 [Compound 7, N-benzyl-8-chloro-10-ethyl-4-methyl-1-oxo-1,2-dihydropyrazino [1,2-a]indole-3-carboxamide]",88%
24 ± 2 nM,–,10 ± 1 nM,completely inactive,> 50000 nM,5 fold,at least 10 fold,–,"CCc1c2cc(Cl)ccc2n2cc(Cc3ccccc3)n(C)c(=O)c12 [Compound 12, 3-Benzyl-8-chloro-10-ethyl-2-methylpyrazino[1,2-a]indol-1(2H)-one]",89%
25 ± 2 nM,–,12 ± 1 nM,completely inactive,> 50000 nM,–,–,inactive,"CCc1c2cc(Cl)ccc2n2cc(-c3ccccc3)[nH]c(=O)c12 [Compound 16, 8-Chloro-10-ethyl-3-phenylpyrazino [1,2-a]indol-1(2H)-one]",91%
